{"source": "patent US11052154B2", "about": "“Ras protein degradation inducing molecule and pharmaceutical composition” (Tokyo University of Science Foundation, priority 2016, dated 2021)", "molecular_target": "T1, wild-type K-Ras protein (Homo sapiens, UniProt P01116)", "T1 construct": "expressed in transfected cells; host or cells: HeLa", "T1 sequence (P01116 1-188 isoform P01116-2)": "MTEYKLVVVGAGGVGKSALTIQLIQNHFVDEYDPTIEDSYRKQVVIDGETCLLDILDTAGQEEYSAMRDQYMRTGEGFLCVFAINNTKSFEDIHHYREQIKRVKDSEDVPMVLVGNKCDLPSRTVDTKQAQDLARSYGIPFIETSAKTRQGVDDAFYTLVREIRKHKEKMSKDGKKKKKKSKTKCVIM", "assay": "Degradation (knockdown) of wild-type K-Ras protein forcibly expressed in HeLa cells, Western blot analysis", "format": "cell-based", "details": "FIG. 2", "description": "In Example 3, degradation (knockdown) of a forcibly expressed wild-type K-Ras protein in HeLa cells through TUS-007 was evaluated by Western blot analysis.\nA plasmid expressing the wild-type K-Ras protein (K-Ras-WT) was prepared, as in Example 2.\nAs in Example 2, the plasmid was introduced into HeLa cells to transiently overexpress the wild-type K-Ras protein (specifically, a fusion protein of the wild-type K-Ras protein and GFP through a HA tag) or a DsRed protein for comparison in the cells. HeLa cells into which the plasmid had been introduced were seeded in a 24-well plate at a cell density of 4×10^4 cells/well, and then cultured under conditions of 37° C. and 5 vol % CO2 for 40 hours.\nCulture was performed for 40 hours after introduction of the plasmid, and then TUS-007 was added to HeLa cells as follows. […]\nAfter electrophoresis, proteins were transferred to a PVDF membrane (Immobion™-P, Millipore) under conditions of 100 V and 120 minutes using a tank-type blotting device and a transfer buffer (25 mM Tris-HCl, 195 mM glycine, 0.01% SDS, 15% methanol). […] Subsequently, the membrane was treated with a chemiluminescence reagent Immobilon™ Western (Millipore), and then chemiluminescence was detected using a lumino image analyzer LAS-3000 (FUJIFILM Corporation). […]"}
{"smiles": "CCC(C)[C@H](NC(=O)CCCCCCNC(=O)[C@H](CC(C)C)NC(=O)CNC(=O)c1cc(Cl)ccc1Cl)C(=O)Nc1ccc2[nH]c(Cc3c[nH]c4ccccc34)nc2c1", "note": "(stereo in doubt) [TUS-007]", "values": [{"measurement": "amount of the wild-type K-Ras protein (Western blot)", "setting": "24 hours after addition, relative to control (DMSO)", "result": "the amount of the wild-type K-Ras protein was reduced"}, {"measurement": "amount of the wild-type K-Ras protein when both TUS-007 and MLN2238 were added (Western blot)", "setting": "MLN2238 co-added, vs control (DMSO)", "result": "the amount of the wild-type K-Ras protein was increased as compared with the amount of the control (DMSO)"}]}
